Results as given in patent publication US20110136666A1, “CHEMICAL COMPOUNDS” (SYNGENTA CROP PROTECTION, INC., priority 2008, published 2011).

Legend:
Type in all cases: in vivo
[1] = tested on: Alopecurus myosuroides (ALOMY); assay: Pre-emergence biological efficacy, glasshouse pot test; settings: 312 h, after 13 days, 100=total damage, 0=no damage, read-out: Percentage damage caused to weed species ALOMY
Experimental: (§1) Seeds of Alopecurus myosuroides (ALOMY), Setaria faberi (SETFA), Echinochloa crus-galli (ECHCG), Solanum nigrum (SOLNI), Amaranthus retroflexus (AMARE) and Ipomea hederaceae (IPOHE) were sown in standard soil in pots. After cultivation for one day under controlled conditions in a glasshouse (at 24/16° C., day/night; 14 hours light; 65% humidity), the plants were sprayed with an aqueous spray solution derived from the formulation of the technical active ingredient in acetone/water (50:50) solution containing 0.5% Tween 20 (polyoxyethylene sorbitan monolaurate, CAS RN 9005-64-5) to give a final dose of 250 or 1000 g/ha of test compound.
(§2) The test plants were then grown under controlled conditions in the glasshouse (at 24/16° C., day/night; 14 hours light; 65% humidity) and watered twice daily. After 13 days the test was evaluated (100=total damage to plant; 0=no damage to plant).

[2] = tested on: Amaranthus retroflexus (AMARE); assay: as above; settings: 312 h, after 13 days, 100=total damage, 0=no damage, read-out: Percentage damage caused to weed species AMARE
Experimental: as §1, §2

[3] = tested on: Echinochloa crus-galli (ECHCG); assay: as above; settings: 312 h, after 13 days, 100=total damage, 0=no damage, read-out: Percentage damage caused to weed species ECHCG
Experimental: as §1, §2

[4] = tested on: Ipomea hederaceae (IPOHE); assay: as above; settings: Ipomoea hederacea, 312 h, after 13 days, 100=total damage, 0=no damage, read-out: Percentage damage caused to weed species IPOHE
Experimental: as §1, §2

[5] = tested on: Setaria faberi (SETFA); assay: as above; settings: 312 h, after 13 days, 100=total damage, 0=no damage, read-out: Percentage damage caused to weed species SETFA
Experimental: as §1, §2

[6] = tested on: Solanum nigrum (SOLNI); assay: as above; settings: 312 h, after 13 days, 100=total damage, 0=no damage, read-out: Percentage damage caused to weed species SOLNI
Experimental: as §1, §2

[7] = tested on: Alopecurus myosuroides (ALOMY); assay: Post-emergence biological efficacy, glasshouse pot test; settings: 312 h, after 13 days, 100=total damage, 0=no damage, read-out: Percentage damage caused to weed species ALOMY
Experimental: as §1, with “8 days” for “one day”
(§3) The test plants were then grown on under controlled conditions in a glasshouse (at 24/16° C., day/night; 14 hours light; 65% humidity) and watered twice daily. After 13 days the test was evaluated (100=total damage to plant; 0=no damage to plant).

[8] = tested on: Amaranthus retroflexus (AMARE); assay: as above; settings: 312 h, after 13 days, 100=total damage, 0=no damage, read-out: Percentage damage caused to weed species AMARE
Experimental: as §1, with “8 days” for “one day”
as §3

[9] = tested on: Echinochloa crus-galli (ECHCG); assay: as above; settings: 312 h, after 13 days, 100=total damage, 0=no damage, read-out: Percentage damage caused to weed species ECHCG
Experimental: as §1, with “8 days” for “one day”
as §3

[10] = tested on: Ipomea hederaceae (IPOHE); assay: as above; settings: Ipomoea hederacea, 312 h, after 13 days, 100=total damage, 0=no damage, read-out: Percentage damage caused to weed species IPONE
Experimental: as §1, with “8 days” for “one day”
as §3

[11] = tested on: Setaria faberi (SETFA); assay: as above; settings: 312 h, after 13 days, 100=total damage, 0=no damage, read-out: Percentage damage caused to weed species SETFA
Experimental: as §1, with “8 days” for “one day”
as §3

[12] = tested on: Solanum nigrum (SOLNI); assay: as above; settings: 312 h, after 13 days, 100=total damage, 0=no damage, read-out: Percentage damage caused to weed species SOLNI
Experimental: as §1, with “8 days” for “one day”
as §3

SMILES	pest or weed control at 1000 g/ha [1]	pest or weed control at 1000 g/ha [2]	pest or weed control at 1000 g/ha [3]	pest or weed control at 1000 g/ha [4]	pest or weed control at 1000 g/ha [5]	pest or weed control at 1000 g/ha [6]	pest or weed control at 1000 g/ha [7]	pest or weed control at 1000 g/ha [8]	pest or weed control at 1000 g/ha [9]	pest or weed control at 1000 g/ha [10]	pest or weed control at 1000 g/ha [11]	pest or weed control at 1000 g/ha [12]	also measured
COC(=O)c1nc(-c2ccc(F)nc2)nc(N)c1Cl [Compound 2-157, 4-Amino-5-chloro-2-(2-fluoropyridin-5-yl)-6-methoxycarbonyl pyrimidine]	0%	0%	0%	0%	0%	0%	30%	60%	0%	70%	20%	60%	–
COC(=O)c1nc(-c2ccc(OC)nc2OC)nc(N)c1Cl [Compound 2-159, 4-Amino-5-chloro-2-(2,6-dimethoxypyridin-3-yl)-6-methoxycarbonyl pyrimidine]	0%	0%	0%	0%	0%	0%	0%	100%	10%	10%	30%	50%	–
COC(=O)c1nc(-c2ccc(C)nc2F)nc(N)c1Cl [Compound 2-161, 4-Amino-5-chloro-2-(2-fluoro-6-methylpyridin-3-yl)-6-methoxycarbonyl pyrimidine]	0%	60%	0%	0%	0%	40%	30%	90%	60%	100%	80%	80%	–
COC(=O)c1nc(-c2cccnc2OCC(F)(F)F)nc(N)c1Cl [Compound 2-166, 4-Amino-5-chloro-6-methoxycarbonyl-2-(2-[2,2,2-trifluoroethoxy]-pyridin-3-yl)-pyrimidine]	–	–	–	–	–	–	–	–	–	–	–	–	pest or weed control at 250 g/ha [1]: 0%; pest or weed control at 250 g/ha [2]: 0%; pest or weed control at 250 g/ha [3]: 0%; pest or weed control at 250 g/ha [4]: 0%; pest or weed control at 250 g/ha [5]: 0%; pest or weed control at 250 g/ha [6]: 0%; pest or weed control at 250 g/ha [7]: 0%; pest or weed control at 250 g/ha [8]: 0%; pest or weed control at 250 g/ha [9]: 0%; pest or weed control at 250 g/ha [10]: 0%; pest or weed control at 250 g/ha [11]: 0%; pest or weed control at 250 g/ha [12]: 0%
COC(=O)c1nc(-c2cccnc2F)nc(N)c1Cl [Compound 2-172, 4-Amino-5-chloro-2-(2-fluoropyridin-3-yl)-6-methoxycarbonyl pyrimidine]	–	–	–	–	–	–	–	–	–	–	–	–	pest or weed control at 250 g/ha [1]: 0%; pest or weed control at 250 g/ha [2]: 0%; pest or weed control at 250 g/ha [3]: 0%; pest or weed control at 250 g/ha [4]: 0%; pest or weed control at 250 g/ha [5]: 0%; pest or weed control at 250 g/ha [6]: 0%; pest or weed control at 250 g/ha [7]: 10%; pest or weed control at 250 g/ha [8]: 0%; pest or weed control at 250 g/ha [9]: 0%; pest or weed control at 250 g/ha [10]: 10%; pest or weed control at 250 g/ha [11]: 10%; pest or weed control at 250 g/ha [12]: 60%
COC(=O)c1nc(-c2cc(Cl)nc(Cl)c2)nc(N)c1Cl [Compound 2-179, 4-Amino-5-chloro-2-(2,6-dichloropyridin-4-yl)-6-methoxycarbonyl pyrimidine]	0%	0%	0%	0%	0%	0%	0%	30%	0%	40%	10%	30%	–
COC(=O)c1nc(-c2cnc(OC)nc2)nc(N)c1Cl [Compound 2-182, 4-Amino-5-chloro-6-methoxycarbonyl-2-(2-methoxypyrimidin-5-yl)-pyrimidine]	0%	0%	0%	0%	0%	40%	0%	20%	0%	30%	10%	70%	–
COC(=O)c1nc(-c2cncc3ccccc23)nc(N)c1Cl [Compound 2-196, 4-Amino-5-chloro-2-isoquinolin-4-yl-6-methoxycarbonyl pyrimidine]	0%	0%	0%	0%	0%	0%	0%	0%	0%	0%	0%	0%	–
CCOC(=O)c1nc(-c2ccc(Cl)s2)nc(N)c1Cl [Compound 3-2, 4-amino-5-chloro-2-(5-chlorothiophen-2-yl)-6-ethoxycarbonyl-pyrimidine]	0%	30%	0%	0%	0%	0%	0%	80%	0%	50%	0%	70%	–
CCOC(=O)c1nc(-c2ccc(C(F)(F)F)cn2)nc(N)c1Cl [Compound 3-150, 4-amino-5-chloro-6-ethoxycarbonyl-2-(5-trifluoromethylpyridin-2-yl)-pyrimidine]	0%	0%	0%	0%	0%	0%	0%	0%	0%	0%	0%	0%	–
